Assay results reported in US20120220581A1, “IMIDAZO[1,2-b]PYRIDAZINE DERIVATIVES AND THEIR USE AS PDE10 INHIBITORS” (Janssen-Cilag, S.A., priority 2009, published 2012).
Like-named read-outs stand apart in the source and are kept apart here.

Columns and labels:
[1] = target: T1, Rat recombinant PDE10A (rPDE10A2) (Rattus norvegicus, UniProt Q9QYJ6); assay: In vitro assay PDE10A (SPA, 3H-cAMP); assay type: biochemical
T1 construct: inferred from the Ni metal chelate purification; made in house; host or cells: Sf9 insect cells (baculovirus)
T1 sequence (Q9QYJ6 1-794): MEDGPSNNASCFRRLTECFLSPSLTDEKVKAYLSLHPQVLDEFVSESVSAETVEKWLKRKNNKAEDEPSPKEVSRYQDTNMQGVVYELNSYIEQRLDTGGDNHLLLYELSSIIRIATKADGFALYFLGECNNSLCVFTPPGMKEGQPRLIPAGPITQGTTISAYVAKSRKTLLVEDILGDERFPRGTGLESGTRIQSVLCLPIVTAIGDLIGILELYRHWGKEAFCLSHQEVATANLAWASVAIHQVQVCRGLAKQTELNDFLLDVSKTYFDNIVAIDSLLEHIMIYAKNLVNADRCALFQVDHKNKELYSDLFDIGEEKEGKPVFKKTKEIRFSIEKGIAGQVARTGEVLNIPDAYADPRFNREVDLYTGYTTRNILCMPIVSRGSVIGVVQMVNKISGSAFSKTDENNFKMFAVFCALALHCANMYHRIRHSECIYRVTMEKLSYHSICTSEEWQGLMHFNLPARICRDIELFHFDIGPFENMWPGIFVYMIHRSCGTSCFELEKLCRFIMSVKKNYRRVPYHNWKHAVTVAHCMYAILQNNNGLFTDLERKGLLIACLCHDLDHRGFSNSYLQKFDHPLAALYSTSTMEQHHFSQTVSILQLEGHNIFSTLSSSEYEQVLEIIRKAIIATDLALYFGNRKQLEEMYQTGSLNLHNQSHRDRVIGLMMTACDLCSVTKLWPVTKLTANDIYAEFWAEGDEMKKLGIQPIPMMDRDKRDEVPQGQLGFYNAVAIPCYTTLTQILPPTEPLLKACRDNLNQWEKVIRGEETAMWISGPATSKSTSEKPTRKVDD
Procedure, shortened: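 Rat PDE10A2 expressed in Sf9 cells and Ni-purified; incubated with 60 nM cAMP plus 0.008 μCi 3H-cAMP in 50 mM Tris pH 7.8, 8.3 mM MgCl2, 1.7 mM EGTA for 60 min at room temperature. Product quantified by scintillation proximity counting; final DMSO 1%.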

[2] = target: other members of the PDE family (Homo sapiens, UniProt O00408); assay: In vitro PDE selectivity assay (SPA), other members of the PDE family (protocols in Table A); assay type: biochemical; conditions: hPDE2A; read-out: PDE 2A (expressed as pIC50) (converted)
Sequence of other members of the PDE family (O00408 whole entry): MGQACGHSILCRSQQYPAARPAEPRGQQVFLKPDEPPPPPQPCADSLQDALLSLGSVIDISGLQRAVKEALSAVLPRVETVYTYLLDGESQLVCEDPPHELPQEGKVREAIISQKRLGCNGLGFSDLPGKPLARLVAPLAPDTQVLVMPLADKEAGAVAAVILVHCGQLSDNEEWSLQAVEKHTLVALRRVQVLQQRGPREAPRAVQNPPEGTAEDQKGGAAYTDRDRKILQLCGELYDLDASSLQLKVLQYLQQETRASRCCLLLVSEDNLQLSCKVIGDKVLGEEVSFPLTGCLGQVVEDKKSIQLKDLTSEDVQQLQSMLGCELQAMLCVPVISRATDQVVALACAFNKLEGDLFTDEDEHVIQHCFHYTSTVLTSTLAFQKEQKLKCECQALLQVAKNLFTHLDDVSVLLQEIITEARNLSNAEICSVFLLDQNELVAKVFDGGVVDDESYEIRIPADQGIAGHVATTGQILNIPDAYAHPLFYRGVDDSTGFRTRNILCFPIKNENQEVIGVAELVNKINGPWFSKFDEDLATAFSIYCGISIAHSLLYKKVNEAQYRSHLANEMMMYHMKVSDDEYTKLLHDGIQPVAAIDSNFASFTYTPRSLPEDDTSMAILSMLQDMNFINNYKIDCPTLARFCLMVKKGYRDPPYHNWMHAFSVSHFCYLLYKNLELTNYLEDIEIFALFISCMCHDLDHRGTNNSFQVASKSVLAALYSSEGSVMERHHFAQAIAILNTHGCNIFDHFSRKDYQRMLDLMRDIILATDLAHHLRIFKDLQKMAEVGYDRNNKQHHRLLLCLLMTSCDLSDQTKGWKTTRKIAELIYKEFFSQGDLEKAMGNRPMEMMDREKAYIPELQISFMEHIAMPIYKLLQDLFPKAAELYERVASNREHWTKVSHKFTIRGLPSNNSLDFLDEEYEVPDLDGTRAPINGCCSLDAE
Procedure: Rat recombinant PDE10A (rPDE10A2) was expressed in Sf9 cells using a recombinant rPDE10A baculovirus construct. Cells were harvested after 48 h of infection and the rPDE10A protein was purified by metal chelate chromatography on Ni-sepharose 6FF. Tested compounds were dissolved and diluted in 100% DMSO to a concentration 100 fold of the final concentration in the assay. Compound dilutions (0.4 μl) were added in 384 well plates to 20 μl of incubation buffer (50 mM Tris pH 7.8, 8.3 mM MgCl2, 1.7 mM EGTA). 10 μl of rPDE10A enzyme in incubation buffer was added and the reaction was started by addition of 10 μl substrate to a final concentration of 60 nM cAMP and 0.008 μCi ^3H-cAMP. The reaction was incubated for 60 minutes at room temperature. After incubation, the reaction was stopped with 20 μl of stop solution consisting of 17.8 mg/ml PDE SPA (scintillation proximity assay) beads. After sedimentation of the beads during 30 minutes the radioactivity was measured in a Perkin Elmer Topcount scintillation counter and results were expressed as cpm. For blanc values the enzyme was omitted from the reaction and replaced by incubation buffer. Control values were obtained by addition of a final concentration of 1% DMSO instead of compound. The same assay principle is applied for the measurement of the affinity of the compound for other members of the PDE family with appropriate modifications in incubation buffer, substrate concentration, incubation time and stop solution. An overview of the different protocols is presented in table A. A best fit curve is fitted by a minimum sum of squares method to the plot of % of control value substracted with blanc value versus compound concentration and the half maximal inhibitory concentration (IC50) value is derived from this curve.
The compounds of the invention are generally selective for PDE10 compared to other PDEs and there are a few that also have affinity for PDE1B1, 4D3 and 5A3.

[3] = test system: apomorphine-induced stereotypy in rats; assay: Apomorphine-induced stereotypy in rats (APO); assay type: in vivo; conditions: Rattus norvegicus
Procedure: Apomorphine (1.0 mg/kg, i.v.)-induced stereotypy (compulsive sniffing, licking, chewing) was scored every 5 min over the first hour after injection of apomorphine, following a 1 hour interval pre-treatment with the test compound. The score system was: (3) pronounced, (2) moderate, (1) slight, and (0) absent.

[4] = Table 4 in vitro selectivity, read-out: PDE 10A2 (expressed as pIC50) (converted)
[5] = pIC50 corresponds to the −log IC50 expressed in mol/L, read-out: PDE10A2 pIC50 (converted)
[6] = dose at which 50% of the tested animals show the effect, ≧: active in 30% of the animals at the indicated dose, ≦: active in 60%
[7] = po, * compound not soluble, tested orally as a suspension, ≧: active in 30% of the animals at the indicated dose, ≦: active in 60%
[8] = po, n.d.: found not active at threshold dose 2.5 mg/kg or 10 mg/kg (a), * not soluble, tested orally as a suspension
[9] = n.d.: found not active at threshold dose 2.5 mg/kg or 10 mg/kg (a), not further tested

Row | IC50 [1, 4] [µM] | IC50 [1, 5] [µM] | IC50 [2] [µM] | SMILES | ED50 [3, 6] [mg/kg] | ED50 [3, 7] [mg/kg] | ED50 [3, 8] [mg/kg] | ED50 [3, 9] [mg/kg]
1 | 0.0145 | 0.0145 | 6.92 | COC(C)(C)Cc1ccc(-c2c(C3CC3)nc3c(-c4ccncc4)ccnn23)cn1 [compound 50, 2-cyclopropyl-3-[6-(2-methoxy-2-methylpropyl)-3-pyridinyl]-8-(4-pyridinyl)-imidazo[1,2-b]pyridazine] | 0.8 |  |  | 
2 | 0.0209 | 0.0209 | > 10 | CC(C)(O)Cc1ccc(-c2c(C3CC3)nc3c(N4CCOCC4)ccnn23)cn1 [compound 54, 5-[2-cyclopropyl-8-(4-morpholinyl)imidazo[1,2-b]pyridazin-3-yl]-α,α-dimethyl-2-pyridineethanol] | 1.2 |  |  | 
3 | 0.427 | 0.427 | > 10 | COCCc1ccc(-c2cnc3c(-c4ccncc4)ccnn23)cn1 [compound 57, 3-[6-(2-methoxyethyl)-3-pyridinyl]-8-(4-pyridinyl)-imidazo[1,2-b]pyridazine] |  |  |  | 
4 | 0.158 | 0.158 | > 10 | Cc1cc(N2CCOCC2)c2nc(C)c(-c3ccc(N4CCOCC4)nc3)n2n1 [compound 68, 2,6-dimethyl-8-(4-morpholinyl)-3-[6-(4-morpholinyl)-3-pyridinyl]-imidazo[1,2-b]pyridazine] |  | ≥ 2.5 |  | 
5 | 0.0832 | 0.0832 | 2.29 | Cc1cc(-c2ccncc2)c2nc(C3CC3)c(-c3ccc(N4CCOCC4)nc3)n2n1 [compound 71, 2-cyclopropyl-6-methyl-3-[6-(4-morpholinyl)-3-pyridinyl]-8-(4-pyridinyl)-imidazo[1,2-b]pyridazine] |  | ≥ 2.5 |  | 
6 | 0.123 | 0.123 | 1.05 | COCCOc1ccc(-c2c(C3CC3)nc3c(-c4ccncc4)cc(C)nn23)cn1 [compound 72, 2-cyclopropyl-3-[6-(2-methoxyethoxy)-3-pyridinyl]-6-methyl-8-(4-pyridinyl)-imidazo[1,2-b]pyridazine] |  | ≥ 2.5 |  | 
7 | 0.589 | 0.589 | > 10 | COCCOc1ccc(-c2c(C3CC3)nc3c(N4CCOCC4)cc(C)nn23)cn1 [compound 74, 2-cyclopropyl-3-[6-(2-methoxyethoxy)-3-pyridinyl]-6-methyl-8-(4-morpholinyl)-imidazo[1,2-b]pyridazine] |  |  |  | 
8 | 0.447 | 0.447 | > 10 | Cc1cc(N2CCOCC2)c2nc(C3CC3)c(-c3ccc(N4CCOCC4)nc3)n2n1 [compound 75, 2-cyclopropyl-6-methyl-8-(4-morpholinyl)-3-[6-(4-morpholinyl)-3-pyridinyl]-imidazo[1,2-b]pyridazine] |  |  |  | 
9 | 0.372 | 0.372 | > 10 | CCc1ccc(-c2c(C3CC3)nc3c(N4CCOCC4)cc(C)nn23)cn1 [compound 84, 2-cyclopropyl-3-(6-ethyl-3-pyridinyl)-6-methyl-8-(4-morpholinyl)-imidazo[1,2-b]pyridazine] |  |  |  | 
10 | 0.661 | 0.661 | > 10 | COCCc1ccc(-c2c(C3CC3)nc3c(N4CCOCC4)cc(C(F)(F)F)nn23)cn1 [compound 85, 2-cyclopropyl-3-[6-(2-methoxyethyl)-3-pyridinyl]-8-(4-morpholinyl)-6-(trifluoromethyl)-imidazo[1,2-b]pyridazine] |  |  |  | 
11 | 0.38 | 0.38 | > 10 | Cc1nc2c(N3CCOCC3)cc(C3CC3)nn2c1-c1ccc(N2CCOCC2)nc1 [compound 94, 6-cyclopropyl-2-methyl-8-(4-morpholinyl)-3-[6-(4-morpholinyl)-3-pyridinyl]-imidazo[1,2-b]pyridazine] |  |  |  | 
12 | 0.724 | 0.724 | > 10 | Cc1cc(N2CCOCC2)c2nc(C3CC3)c(-c3ccc(N4CCNCC4)nc3)n2n1 [compound 100, 2-cyclopropyl-6-methyl-8-(4-morpholinyl)-3-[6-(1-piperazinyl)-3-pyridinyl]-imidazo[1,2-b]pyridazine] |  |  |  | 
13 | 0.331 | 0.331 | > 10 | Cc1cc(N2CCOCC2)c2nc(C)c(-c3ccc(C4CC4)nc3)n2n1 [compound 110, 3-(6-cyclopropyl-3-pyridinyl)-2,6-dimethyl-8-(4-morpholinyl)-imidazo[1,2-b]pyridazine] |  |  |  | 
14 | 0.427 | 0.427 | 8.13 | c1cc(N2CCOCC2)c2ncc(-c3ccc(C4CC4)nc3)n2n1 [compound 112, 3-(6-cyclopropyl-3-pyridinyl)-8-(4-morpholinyl)-imidazo[1,2-b]pyridazine] |  |  |  | 
15 | 2.63 | 2.63 | > 10 | COCCn1cc(-c2c(C)nc3c(-c4ccncc4)cc(C(F)(F)F)nn23)cn1 [compound 129, 3-[1-(2-methoxyethyl)-1H-pyrazol-4-yl]-2-methyl-8-(4-pyridinyl)-6-(trifluoromethyl)-imidazo[1,2-b]pyridazine] |  |  |  | 
16 | 0.525 | 0.525 | > 10 | COCCn1cc(-c2c(C)nc3c(N4CCCC4)ccnn23)cn1 [compound 136, 3-[1-(2-methoxyethyl)-1H-pyrazol-4-yl]-2-methyl-8-(1-pyrrolidinyl)-imidazo[1,2-b]pyridazine] |  |  |  | 
17 |  | 0.0692 |  | COCCn1cc(-c2c(C(F)(F)F)nc3c(N4CCOCC4)ccnn23)cn1 [compound 139, 3-[1-(2-methoxyethyl)-1H-pyrazol-4-yl]-8-(4-morpholinyl)-2-(trifluoromethyl)-imidazo[1,2-b]pyridazine] |  |  | > 2.5 | 
18 |  | 0.01 |  | FC(F)(F)Cn1cc(-c2c(C3CC3)nc3c(-c4ccncc4)ccnn23)cn1 [compound 141, 2-cyclopropyl-8-(4-pyridinyl)-3-[1-(2,2,2-trifluoroethyl)-1H-pyrazol-4-yl]-imidazo[1,2-b]pyridazine] |  |  | > 2.5 | 
19 | 0.324 | 0.324 | > 10 | c1cc(N2CCOCC2)c2ncc(-c3ccc(N4CCOCC4)nc3)n2n1 [compound 144, 8-(4-morpholinyl)-3-[6-(4-morpholinyl)-3-pyridinyl]-imidazo[1,2-b]pyridazine] |  |  |  | 
20 |  | 0.0589 |  | COCCc1ccc(-c2c(C(F)(F)F)nc3c(N4CCOCC4)ccnn23)cn1 [compound 145, 3-[6-(2-methoxyethyl)-3-pyridinyl]-8-(4-morpholinyl)-2-(trifluoromethyl)-imidazo[1,2-b]pyridazine] |  |  |  | > 2.5
21 |  | 0.151 |  | COCCOc1cncc(-c2c(C)nc3c(-c4ccncc4)ccnn23)c1 [compound 149, 3-[5-(2-methoxyethoxy)-3-pyridinyl]-2-methyl-8-(4-pyridinyl)-imidazo[1,2-b]pyridazine] |  |  |  | > 2.5
